According to patent US9937165B2, “Pharmacological chaperones for treating obesity” (Amicus Therapeutics, Inc., priority 2005, dated 2018):
Several values for one entry are separate records, joined by “and”; a condition that tells them apart may be missing. Equal values may be shown once. Each block holds one compound with its values, some of them ahead of it. Square brackets hold non-standard residues; d marks the D form. Nle = CCCC[C@H](N)C(=O)O

Legend:
[1] = in vivo; cited from earlier work
[2] = molecular target: T1, α-Galactosidase A (α-Gal A) (Homo sapiens, UniProt P06280); parameters: host or cells: normal lymphoblasts (endogenous enzyme); details: normal lymphoblasts cultured in vitro with DGJ; cited from earlier work
T1 sequence (P06280 32-429): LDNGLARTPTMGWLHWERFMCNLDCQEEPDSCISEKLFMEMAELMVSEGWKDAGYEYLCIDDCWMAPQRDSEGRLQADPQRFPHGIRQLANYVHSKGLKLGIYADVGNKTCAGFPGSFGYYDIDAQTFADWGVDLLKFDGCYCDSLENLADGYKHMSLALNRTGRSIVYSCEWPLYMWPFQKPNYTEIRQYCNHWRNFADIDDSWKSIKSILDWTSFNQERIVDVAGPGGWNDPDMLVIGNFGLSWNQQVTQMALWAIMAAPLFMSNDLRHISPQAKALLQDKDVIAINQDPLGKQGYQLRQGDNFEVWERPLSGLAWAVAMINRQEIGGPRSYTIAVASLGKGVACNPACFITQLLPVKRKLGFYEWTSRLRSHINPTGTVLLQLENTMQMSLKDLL

[3] = Phase I study of DGJ, safety and tolerability; format: in vivo, human
Procedure: (§1) Subjects were housed in the treatment facility from 14 hours prior to dosing until 24 hours after dosing. Meals were controlled by schedule and subjects remained abulatory for 4 hours post drug administration.
Safety was determined by evaluating vital signs, laboratory parameters (serum chemistry, hematology, and urinalysis), ECGs, physical examination and by recording adverse events during the Treatment Period.
Safety data including laboratory evaluations, physical exams, adverse events, ECG monitoring and vital signs assessments were summarized by treatment group and point of time of collection. Descriptive statistics (arithmetic mean, standard deviation, median, minimum and maximum) were calculated for quantitative safety data as well as for the difference to baseline. Frequency counts were compiled for classification of qualitative safety data.
Adverse events were coded using the MedDRA version 7.0 dictionary and summarized by treatment for the number of subjects reporting the adverse event and the number of adverse events reported. A by-subject adverse event data listing including verbatim term, coded term, treatment group, severity, and relationship to treatment was provided. Concomitant medications and medical history were listed by treatment.

[4] = molecular target: T1, α-Galactosidase A (α-Gal A); test: Phase I study of DGJ, WBC α-Gal A enzymatic activity; format: in vivo; parameters: α-Gal A activity was calculated in white blood cells (WBC) before dosing began; endogenous in cells
Procedure: as §1
Blood samples (10 mL each) were collected in blood collection tubes containing EDTA and WBC extracted before dosing and at the following times thereafter: 100 hours, 150 hours, and 336 hours. Samples were treated as described above, and WBC α-Gal A enzymatic activity levels were determined.

[5] = Phase I study of DGJ, pharmacokinetics in plasma and urine; format: in vivo, human
Procedure: as §1
Blood samples (10 mL each) were collected in blood collection tubes containing EDTA before dosing and at the following times thereafter: 0.25, 0.5, 0.75, 1, 1.5, 2, 3, 4, 5, 6, 7, 8, 9, 10, 11 and 12 hours. Blood samples were cooled in an ice bath and centrifuged under refrigeration as soon as possible. Plasma samples were divided into two aliquots and stored at […]. pending assay. At the end of the study, all samples were transferred to MDS Pharma Services Analytical Laboratories (Lincoln) for analysis.
Pharmacokinetic parameters were summarised by treatment group using descriptive statistics (arithmetic means, standard deviations, coefficients of variation, sample size, minimum, maximum and median).

[6] = molecular target: MC4R as compared to the MC3R (Homo sapiens, UniProt P32245); details: cited from earlier work
[7] = molecular target: MC4R as compared to the MC5R (Homo sapiens, UniProt P32245); details: cited from earlier work
hMC4R mutant R165W = molecular target: T2, hMC4R mutant R165W (Homo sapiens, UniProt P32245, R165W); test: Pharmacological chaperone assay, cell surface expression by FACS, mutant R165W; format: cell-based; details: 12 h
T2 construct: expressed in transfected cells; host or cells: HEK 293 cells, transient transfection
Procedure: (§2) HEK 293 cells were transiently transfected with wild-type (WT) or the following hMC4R mutants double tagged with 3HA and Venus (Enhanced Yellow Green Fluorescent Protein; EYFP): S58C; N62S; R165W; R165Q, and P299H.
(§3) FACS analysis was performed after fluorescently labeling cells with primary anti-HA.11 antibody (mouse; 1:1000 dilution) and the secondary antibody coupled to Alexa 647 (goat anti-mouse; 1:1000 dilution) dilution. Live cells (propidium iodide negative) were sorted into the following two relevant populations: • P4: Total YFP positive cells (representative of total MC4R expression) • P5: Percent of cells positive for both YFP and Alexa 647 (Alexa and YFP positive cells)/(YFP positive cells+Alexa and YFP positive cells) (representative of cell surface expression)
(§4) Briefly, cells harboring each of the above-referenced MC4R mutants (transfected as described in Example 3) were cultured with each of the antagonist compounds at concentrations of 1.0 μM and 10 μM for 12 h and evaluated for cell surface expression of MC4R using fluorescent activated cell sorting analysis as described above. Cell surface expression levels are compared between treatment and basal conditions. Percent Gain is determined according to the following: [Gain=[(% of surface expression (with treatment)−% of surface expression (w/o treatment))/% of surface expression (w/o treatment)]*100.

hMC4R mutant P299H = molecular target: T3, hMC4R mutant P299H (Homo sapiens, UniProt P32245, P299H); test: Pharmacological chaperone assay, cell surface expression by FACS, mutant P299H; format: cell-based; details: 12 h
T3 construct: expressed in transfected cells; host or cells: HEK 293 cells, transient transfection
Procedure: as §2, §3, §4

hMC4R mutant S58C = molecular target: T4, hMC4R mutant S58C (Homo sapiens, UniProt P32245, S58C); test: Pharmacological chaperone assay, cell surface expression by FACS, mutant S58C; format: cell-based; details: 12 h
T4 construct: expressed in transfected cells; host or cells: HEK 293 cells, transient transfection
Procedure: as §2, §3, §4

hMC4R mutant R165Q = molecular target: T5, hMC4R mutant R165Q (Homo sapiens, UniProt P32245, R165Q); test: Pharmacological chaperone assay, cell surface expression by FACS, mutant R165Q; format: cell-based; details: 12 h
T5 construct: expressed in transfected cells; host or cells: HEK 293 cells, transient transfection
Procedure: as §2, §3, §4

hMC4R mutant N62S = molecular target: T6, hMC4R mutant N62S (Homo sapiens, UniProt P32245, N62S); test: Pharmacological chaperone assay, cell surface expression by FACS, mutant N62S; format: cell-based; details: 12 h
T6 construct: expressed in transfected cells; host or cells: HEK 293 cells, transient transfection
Procedure: as §2, §3, §4

[8] = tested on: WT and mutant hMC4R (S58C; N62S; R165W; R165Q; P299H) in HEK 293 cells; test: Chemical chaperone assay, MC4R cell surface expression by FACS; format: cell-based, human; details: 1% DMSO, 12 hours
Procedure: as §2
WT and transiently transfected cells were incubated in the presence or absence of 1% DMSO for 12 hours prior to evaluation of MC4R cells surface expression.
as §3

T3 sequence (P32245 whole entry P299H): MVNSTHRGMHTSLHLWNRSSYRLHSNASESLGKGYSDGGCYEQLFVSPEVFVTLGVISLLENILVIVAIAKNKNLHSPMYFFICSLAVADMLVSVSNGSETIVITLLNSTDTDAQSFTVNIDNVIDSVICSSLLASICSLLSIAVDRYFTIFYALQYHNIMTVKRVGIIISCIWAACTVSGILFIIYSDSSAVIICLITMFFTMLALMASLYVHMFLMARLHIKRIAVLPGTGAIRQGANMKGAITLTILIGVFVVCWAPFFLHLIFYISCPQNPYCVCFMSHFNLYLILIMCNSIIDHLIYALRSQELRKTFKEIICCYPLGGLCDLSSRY
T6 sequence (P32245 whole entry N62S): as the sequence (P32245 whole entry P299H) above, with N62S, H299P counted along it
T5 sequence (P32245 whole entry R165Q): as the sequence (P32245 whole entry P299H) above, with R165Q, H299P counted along it
T4 sequence (P32245 whole entry S58C): as the sequence (P32245 whole entry P299H) above, with S58C, H299P counted along it
T2 sequence (P32245 whole entry R165W): as the sequence (P32245 whole entry P299H) above, with R165W, H299P counted along it
MC4R as compared to the MC5R, sequence (P32245 whole entry): as the sequence (P32245 whole entry P299H) above, with H299P counted along it
MC4R as compared to the MC3R, sequence (P32245 whole entry): as the sequence (P32245 whole entry P299H) above, with H299P counted along it

Compound: O=C(N[C@H](Cc1ccc(Cl)cc1)C(=O)N1CCC(Cn2cncn2)(C2CCCCC2)CC1)[C@H]1Cc2ccccc2CN1 [Compound 1, THIQ]
- PK %F [1]: %F 14
- PK Cl [1]: Cl 84 mLmin/kg
- PK Vd [1]: Vd 3.6 L/kg
- PK t½ [1]: t½ 0.6 h

- inhibition of WBC α-Gal A enzymatic activity ([4]; 50 mg b.i.d. or 150 mg b.i.d.): did not inhibit
- WBC α-Gal A enzymatic activity, % pre-dose levels ([4]; 50 mg b.i.d., 150 hours): 130%
- WBC α-Gal A enzymatic activity, % pre-dose levels ([4]; 50 mg b.i.d., 336 hours): 145%
- WBC α-Gal A enzymatic activity, % pre-dose levels ([4]; 150 mg b.i.d., 100 hours): 150%
- WBC α-Gal A enzymatic activity, % pre-dose levels ([4]; 150 mg b.i.d., 150 hours): 185%
- WBC α-Gal A enzymatic activity, % pre-dose levels ([4]; 150 mg b.i.d., 336 hours): 185%
- tmax ([5]; 50 mg b.i.d. oral, Day 1): 2.9 ± 0.4 h
- t½ ([5]; 50 mg b.i.d. oral, Day 1): 2.5 h
- 12 h cumulative renal excretion ([5]; 50 mg b.i.d. oral, Day 1, 12-hour post dose period): 16% and 16 ± 6%
- Cmax ([5]; 50 mg b.i.d. oral, Day 1, plasma): 2.3 ± 0.3 µM
- Cmin ([5]; 50 mg b.i.d. oral, Day 7): 0.4 ± 0.03 µM
- tmax ([5]; 50 mg b.i.d. oral, Day 7): 2.5 ± 0.4 h
- 12 h cumulative renal excretion ([5]; 50 mg b.i.d. oral, Day 7, 12-hour post dose period): 48% and 48 ± 7%
- Cmax ([5]; 50 mg b.i.d. oral, Day 7, plasma): 39 ± 0.5 µM
- tmax ([5]; 150 mg b.i.d. oral, Day 1): 3.1 ± 0.4 h
- t½ ([5]; 150 mg b.i.d. oral, Day 1): 2.4 h
- 12 h cumulative renal excretion ([5]; 150 mg b.i.d. oral, Day 1, 12-hour post dose period): 42% and 42 ± 7%
- Cmax ([5]; 150 mg b.i.d. oral, Day 1, plasma): 11.3 ± 1.5 µM
- Cmin ([5]; 150 mg b.i.d. oral, Day 7): 1.2 ± 0.1 µM
- tmax ([5]; 150 mg b.i.d. oral, Day 7): 2.9 ± 0.4 h
- 12 h cumulative renal excretion ([5]; 150 mg b.i.d. oral, Day 7, 12-hour post dose period): 60% and 60 ± 5%
- Cmax ([5]; 150 mg b.i.d. oral, Day 7, plasma): 10.8 ± 1.4 µM
- time of peak concentrations, on average ([5]; all dose levels): approximately 3 hours
- dose dependence of Cmax ([5]; doses increased from 50 mg to 150 mg): increased in a dose-proportional manner
Compound: OC[C@H]1NC[C@H](O)[C@@H](O)[C@H]1O [DGJ, 1-deoxygalactonojirimycin]
- increase of α-Gal A activity [2]: 30%
- safety and tolerability ([3]; 50 mg b.i.d. and 150 mg b.i.d., healthy male subjects): safe and well tolerated
- adverse events (AEs) ([3]; 50 mg b.i.d. or 150 mg b.i.d., healthy male subjects): no subject presented with AEs
- vital sign, ECG, or physical examination parameter ([3]; throughout the study): No clinically relevant abnormality

Compound: Ac-Nle-Gly-Lys-D-Phe-Arg-Trp-Gly-NH(2) (Ac-[Nle]GK[dF]RWG-NH2; SMILES CCCC[C@H](NC(C)=O)C(=O)NCC(=O)N[C@@H](CCCCN)C(=O)N[C@H](Cc1ccccc1)C(=O)N[C@@H](CCCNC(=N)N)C(=O)N[C@@H](Cc1c[nH]c2ccccc12)C(=O)NCC(N)=O)
- selectivity for the MC4R as compared to the MC3R [6]: 90 fold
- selectivity for the MC4R as compared to the MC5R [7]: 110 fold

Compound: CC(CN1CCN(CC(c2ccc(F)cc2)N2CCN(C)CC2)CC1)C(=O)c1ccccc1 (centres unmarked) [Compound 3]
- % Gain in cell surface expression (hMC4R mutant R165W; 1 μM): 467%
- % Gain in cell surface expression (hMC4R mutant R165W; 10 μM): 675%
- % Gain in cell surface expression (hMC4R mutant P299H; 1 μM): 27.78%
- % Gain in cell surface expression (hMC4R mutant P299H; 10 μM): 77.78%
- % Gain in cell surface expression (hMC4R mutant P299H; 10 μM, listed as compound shown in FIG. 5): only a small effect
- % Gain in cell surface expression (hMC4R mutant S58C; 1 μM): 77.5%
- % Gain in cell surface expression (hMC4R mutant S58C; 10 μM): 130%
- % Gain in cell surface expression (hMC4R mutant R165Q; 1 μM): 300%
- % Gain in cell surface expression (hMC4R mutant R165Q; 10 μM): 508%
- % Gain in cell surface expression (hMC4R mutant N62S; 1 μM): 25%
- % Gain in cell surface expression (hMC4R mutant N62S; 10 μM): 343.75%
- % Gain in cell surface expression (hMC4R mutant N62S; 10 μM, listed as compound depicted in FIG. 5): more potent

Compound: C[S+](C)[O-] [DMSO]
- enhancement of MC4R cell surface expression [8]: No significant enhancement
